The source of these data is patent US8506928B2, “Methods and compounds for targeting tissues” (The Regents of the University of California, priority 2007, dated 2013).

Data set [1] in a line: Pre-administration of RES inhibitors before CRPPR-3 liposomes. Type of data set: in vivo, mice. The note with it: for decrease of accumulation within the heart: 90 minute time point, pre-administration before CRPPR-3 liposomes; for ratio of radioactivity in the heart with and without inhibitors: well counts at 90 minutes after CRPPR-3 liposome injection. As to the method: Blank liposomes: blank liposomes (DPPC:DSPE-PEG2000=98:2 (mol/mol), with diameter 100 nm) with 300 μg lipids (12 mg/kg) in 100 μl saline were injected 15 minutes before the radiolabeled targeted liposomes. Polyinosinic acid (PI): PI (P4154), purchased from Sigma-Aldrich, was dissolved in 0.9% sterile injection saline at 2 mg/ml. A small amount of sodium hydroxide solution was added to dissolve PI powder and the pH of the PI solution was adjusted to 7.4 with HCl solution. 5 μl of PI solution (˜10 μg of PI, 0.4 mg/kg) was diluted with 100 μl saline and injected 1 minute before the injection of the radiolabeled targeted liposomes. Control animals received an equal volume of saline solution. Clodronate liposomes: Clodronate liposomes were prepared as in [21]. 100 μl of clodronate liposomes (˜0.05 mg, 2 mg/kg) were injected 24 hours in advance of the administration of radiolabeled targeted liposomes. Control animals received an equal volume of saline solution. Free CRPPR Peptide (SEQ ID NO: 1): 700 μg of CRPPR peptides (SEQ ID NO: 1) (25 mg/kg) were injected 1 minute before the administration of radiolabeled targeted liposomes. Control animals received an equal volume of injection saline solution.

Another data set deals with heart endothelium. Particulars: described in [4]; cited from earlier work.

Residues, ends and D or L forms follow the SMILES beside them.

For the molecule `NC(N)=NCCC[C@H](NC(=O)[C@@H]1CCCN1C(=O)[C@@H]1CCCN1C(=O)[C@H](CCCN=C(N)N)NC(=O)[C@@H](N)CS)C(=O)O` [CRPPR] (H-CRPPR-OH), in data set [1], the “decrease of accumulation within the heart” value is given as roughly 19%; the “ratio of radioactivity in the heart with and without inhibitors” value was 0.81. In the data set with heart endothelium, the “target-to-muscle ratio, phage targeting” value is “greater than 300 fold”.

As for Polyinosinic acid [PI], in data set [1], the “decrease of accumulation within the heart” value worked out at 41%; the “ratio of radioactivity in the heart with and without inhibitors” value stood at 0.59.
